Reference: patent US20250169495A1, “COMPOSITIONS AND METHODS FOR CONTROLLING DROSOPHILA FLIES” (Rutgers, The State University of New Jersey, priority 2023, published 2025)

Assays:
Type in all cases: in vivo
[1] = system: Drosophila suzukii adults; experiment: Multiple choice bioassay #1: anthracnose-induced volatiles, gated traps with blueberries; settings: 50 μL neat volatile added to blueberry fruit in gated trap; 15 traps per arena; 24 h; n=4
Description: These bioassays were done in arenas that consisted of a dome cage (60 cm width×60 cm length x 60 cm height; BugDorm-2120 Insect tent; shop.bugdorm.com) (FIG. 1A). Within each arena, 15 gated traps were positioned randomly in a circle (40 cm diameter) at equal distance with each trap 8.4 cm apart along the circumference (FIG. 1A). Each gated trap consisted of 50 mL polystyrene tubes (Fisher Scientific, Nazareth, PA, USA) covered with aluminum foil and sealed with Parafilm®, with a 4 mm-diameter hole in the center of the Parafilm to provide an entrance to flies. All traps had equal quantities (ca. 5 g) of store-bought organic blueberry fruit (n=5); fruit were sterilized with bleach prior to the study (10% bleach for 2 min, rinsed three times in distilled water). One of the 15 traps served as a control (with blueberry fruit only) and the remaining 14 traps had one of the anthracnose volatile compounds added to the blueberry fruit. The 14 compounds tested were: 3-hydroxy-2-butanone, styrene, (E)-2-hexen-1-ol, ethyl 3-hydroxy-3-methylbutanoate, 2-methyl-1-butanol, ethyl propanoate, 2-methyl-1-propanol, diethyl carbonate, 2-methylpropanal, 3-methyl-1-butanol, ethyl 2-methylpropanoate, ethyl butanoate, ethyl (E)-but-2-enoate, and 3-methyl-3 buten-1-ol (see Results). Each volatile (50 μL, neat) was released from a 1 mL polyethylene vial (Globe Scientific Inc., Paramus, NJ, USA) with a piece of cotton placed inside each trap (control traps had vials with cotton but without the volatile). A vial with a cotton ball soaked with deionized water was placed in the middle of the arena to provide flies with water during the experiment. Roughly 300 D. suzukii adults (1:1 male: female ratio) were released inside each arena and the number and sex of flies inside treatment and control traps was recorded after 24 h. The experiment started at 1:00 p.m., was replicated 4 times, and was done in a laboratory under 22+2° C., 55+5% RH, 16:8 (L:D) h.
Data from multiple choice assays on the percent of male and female D. suzukii adults responding to each volatile were compared using ANOVA (Minitab version 17; Minitab Inc., State College, PA, USA). The ANOVA model included treatment, sex, and their interaction as fixed factors and block (replicate) as a random factor. A multi-comparison Tukey test (Minitab) was used to determine differences among treatments. Percent data were arcsine square-root transformed prior to ANOVA. Pairwise choice assays were analyzed using G-tests with William's correction. Non-responders were excluded from the statistical analyses.

[2] = system: Drosophila suzukii adults; experiment: Multiple choice bioassay #2: known and putative repellents; settings: 50 μL neat; six traps per arena; 24 h; n=6
Description: Within each arena, six gated traps were positioned randomly in a circle (40 cm diameter) at equal distance with each trap 20 cm apart along the circumference. Each gated trap contained ˜5 g of store-bought organic blueberry fruit (n=5), as described elsewhere herein. One of the six traps served as a control (with blueberry fruit only) and the remaining five traps had one of the repellents added to the blueberry fruit. Each volatile (50 μL, neat) was released from a 1 mL polyethylene vial with a piece of cotton placed inside each trap (control traps had vials with cotton but without the volatile). A vial with a cotton ball soaked with deionized water was placed in the middle of the arena. Roughly 150 D. suzukii adults (1:1 male: female ratio) were released inside each arena and the number and sex of flies inside treatment and control traps was recorded after 24 h. The experiment started at 1:00 p.m., was replicated 6 times, and was done in a laboratory under 22±2° C., 55±5% RH, 16:8 (L:D) h. Data from multiple choice assays on the percent of male and female D. suzukii adults responding to each volatile were compared using ANOVA (Minitab version 17; Minitab Inc., State College, PA, USA). The ANOVA model included treatment, sex, and their interaction as fixed factors and block (replicate) as a random factor. A multi-comparison Tukey test (Minitab) was used to determine differences among treatments. Percent data were arcsine square-root transformed prior to ANOVA. Pairwise choice assays were analyzed using G-tests with William's correction. Non-responders were excluded from the statistical analyses.

Drosophila suzukii = experiment: Field cage experiments, cultivated highbush blueberry bushes
Description: Field cage experiments were conducted from June until July using highbush blueberries (V. corymbosum var. ‘Bluecrop’). The studies were carried out in 5.5 m long×2.7 m tall cages, constructed with a PVC pipe frame covered with No-See-Um mesh (Quest Outfitters Inc., Sarasota, FL, USA) (FIG. 6C). Cages were placed in separate rows within a blueberry field, with bushes spaced approx. 0.76 m apart within the rows and 3.05 m between rows. Each row contained two cages at least 9 m in distance. To avoid interference between treatments, alternate cages were used during testing, ensuring that no adjacent cages contained sachets simultaneously. Two, 3-m rebar poles were used to reinforce the mesh on the long sides of each cage as well as 10 cm long garden staples to hold mesh flush to the ground, while the shorter ends were secured with clips to allow access to the cage. Each cage contained five blueberry bushes approx. 1.5 m in height. Sachets containing ethyl butanoate, ethyl (E)-but-2-enoate, or 2-pentylfuran were prepared as described before. To test the effects of the repellents on the treated (focal) bush and in neighboring bushes at various distances, two sachets of the same compound were hung from one of the end bushes in each cage (FIG. 6D). There were four treatments: 1) ethyl butanoate, 2) ethyl (E)-but-2-enoate, 3) 2-pentylfuran, and 4) control (no repellent). Each treatment was replicated four times, with each cage assigned to a single treatment, resulting in a total of 16 cages. Twenty-four hours after deploying the sachets, 120 flies (approximately 60 males and 60 females) were released into each cage at 18:00 hrs (N=120 flies×4 treatments×4 replicates=1,920 total flies). To ensure even distribution within the cages, 30 flies were released at four equidistant points between the bushes. A pre-sampling of the berries, conducted before the flies were released, confirmed the absence of any infestation. Berries were then collected 1-, 2-, and 3-days post-treatment. From every other bush (starting at the focal bush) in the cage, 50 berries from the top half and 50 from the bottom half were collected into two separate 236.6 mL deli containers lined with two cotton pads. From each berry sample, a random subsample of 10 berries were examined and egg counts recorded before being returned to the original container. The blueberries were incubated on a light bench in the laboratory for up to two weeks, as previously described, and adult emergence was recorded. The sachets were weighed before deployment and 3 days after deployment to measure the emission rates of each compound. Field cage data for both oviposition and adult emergence were non-normal, so non-parametric tests were applied using R statistical software. The effects of ‘Treatment’ (untreated control, ethyl butanoate, ethyl (E)-but-2-enoate, and 2-pentylfuran) across ‘Bush Position’ (focal, center, end) and ‘Day After Treatment’ (1, 2, 3 DAT) were assessed using the Kruskal-Wallis Test. When significant Treatment effects were found, post-hoc separation was performed using Dunn's Test.

SMILES: CCCC(=O)OCC [ethyl butanoate]
- number of flies captured relative to the control [1]: reduced the number of flies captured relative to the control

SMILES: C/C=C/C(=O)OCC [ethyl (E)-but-2-enoate]
- number of flies captured relative to the control [1]: reduced the number of flies captured relative to the control
- strength of repellency among the five repellents (rank) [2]: the most repellent
- adult emergence (Drosophila suzukii; 1 DAT, center bush): fewest adults emerge
- adult emergence (Drosophila suzukii; 1 DAT, end bush): fewest adults emerge
- egg counts (Drosophila suzukii; 1 DAT, end bush): fewest eggs
- adult emergence (Drosophila suzukii; 2 DAT, center bush): fewest adults emerge
- egg counts (Drosophila suzukii; 2 DAT, center bush): lowest egg counts
- adult emergence (Drosophila suzukii; 2 DAT, end bush): fewest adults emerge
- egg counts (Drosophila suzukii; 2 DAT, end bush): lowest egg counts
- adult emergence (Drosophila suzukii; 3 DAT, center bush): lowest adult emergence
- egg counts (Drosophila suzukii; 3 DAT, center bush): lowest egg count
- adult emergence (Drosophila suzukii; 3 DAT, end bush): significantly different compared to the other repellents
- egg counts (Drosophila suzukii; 3 DAT, end bush): lowest egg count
- adult emergence (Drosophila suzukii; 3 DAT, focal bush): lowest adult emergence
- egg counts (Drosophila suzukii; 3 DAT, focal bush): lowest egg count

SMILES: CCCCCc1ccco1 [2-pentylfuran, reference compound]
- strength of repellency among the five repellents (rank) [2]: the least repellent
- egg counts (Drosophila suzukii; 1 DAT, central bush): lower
- egg counts (Drosophila suzukii; 1 DAT, end bush): fewest eggs
- adult emergence (Drosophila suzukii; 3 DAT, center bush): lowest adult emergence
- adult emergence (Drosophila suzukii; 3 DAT, focal bush): lowest adult emergence
